Experimental data published in patent US20240124418A1 (BioTheryX, Inc., priority 2020, published 2024).

How the values were obtained:
TNF-α = assay: Cell-based TNF-α inhibition assay (LPS-induced PBMCs, Meso Scale); conditions: PBMC, PBMCs pretreated 1 h, LPS 100 ng/mL 18-24 h, percentage of stimulated DMSO control; for inhibition at 0.1 µM: compound concentration 0.1 μM; for inhibition at 1 µM: compound concentration 1 μM
Method in brief: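 Thawed primary PBMCs (200,000 cells/well, RPMI 1640 with 10% FBS) were pretreated with compound for 1 h, then stimulated with 100 ng/mL LPS for 18–24 h. Supernatant TNF-α was measured by Meso Scale, and activity was expressed as percent inhibition relative to the stimulated DMSO control.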

PDE4B = target: T1, PDE4B (Homo sapiens, UniProt Q07343); assay: Protein degradation assay, western blot, PDE4B in A549 cells; type: cell-based; conditions: 24 h treatment, 'as high as about' = upper value for the group, read-out: PDE4B degradation relative to DMSO
T1 construct: endogenous in cells; host or cells: A549
Protocol: Example B2. Protein Degradation Assay
A549 cells were grown in RPMI 1640 media supplemented with 10% fetal bovine serum, streptomycin, and penicillin. The cells were plated in 6-well plates at 300,000 cells/well in the growth media. After overnight incubation, the cells were treated with DMSO (control) or a compound at predetermined concentrations (e.g., 10 nM, 100 nM, 1 μM, 3 μM, or 10 μM) for 24 h at 37° C. under 5% CO2. Whole cell extracts were prepared using an immunoprecipitation (IP) lysis buffer. The cells were washed once in PBS, and the cell pellets were resuspended in the IP lysis buffer and incubated for 15 min on ice. Cells debris was removed by centrifugation and the cleared whole cell lysates were transferred to new tubes for further analysis.
For a western blot analysis, the whole cell protein extracts were separated on 4-12% SDS-polyacrylamide gels, transferred to nitrocellulose, and probed with primary antibodies. Membranes were subsequently washed and probed with IRDYE® secondary antibodies. The signals were detected using an ODYSSEY® Imaging System. The antibodies used in the assay included anti-PDE4B antibody; anti-PDE4D antibodies (top, bottom, and short isoform); β-actin mouse monoclonal antibody; IRDYE® 680RD goat anti-rabbit antibody; and IRDYE® 800CW goat anti-mouse antibody. The compounds provided herein are PDE4 protein degraders.

T1 sequence (Q07343 whole entry): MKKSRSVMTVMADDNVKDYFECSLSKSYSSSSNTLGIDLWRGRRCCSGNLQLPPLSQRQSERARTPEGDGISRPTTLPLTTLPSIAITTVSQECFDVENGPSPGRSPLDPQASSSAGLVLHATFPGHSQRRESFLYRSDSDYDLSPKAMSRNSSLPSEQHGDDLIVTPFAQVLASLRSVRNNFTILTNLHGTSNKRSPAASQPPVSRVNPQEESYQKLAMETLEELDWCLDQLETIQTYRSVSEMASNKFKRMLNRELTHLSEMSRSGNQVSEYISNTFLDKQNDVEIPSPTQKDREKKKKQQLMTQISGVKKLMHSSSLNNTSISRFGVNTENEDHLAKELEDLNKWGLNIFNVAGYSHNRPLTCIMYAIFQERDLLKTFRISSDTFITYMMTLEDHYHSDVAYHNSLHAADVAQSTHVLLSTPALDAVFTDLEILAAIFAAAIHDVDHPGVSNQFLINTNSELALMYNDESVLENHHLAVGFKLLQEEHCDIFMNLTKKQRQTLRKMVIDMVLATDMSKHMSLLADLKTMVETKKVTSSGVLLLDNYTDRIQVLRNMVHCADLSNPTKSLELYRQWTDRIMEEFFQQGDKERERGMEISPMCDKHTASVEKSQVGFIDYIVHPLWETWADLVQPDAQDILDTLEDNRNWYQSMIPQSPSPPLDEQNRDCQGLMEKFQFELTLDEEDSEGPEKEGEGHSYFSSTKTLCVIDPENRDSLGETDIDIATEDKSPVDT

Dmax (PDE4B) | Compound | inhibition at 0.1 µM (TNF-α) | inhibition at 1 µM (TNF-α)
≤ 70% | CCOc1cc([C@@H](CS(C)(=O)=O)N2C(=O)c3cc(CCCCCCCN4CCC(c5cc(F)cc6c5CN(C5CCC(=O)NC5=O)C6=O)CC4)cc(NC(C)=O)c3C2=O)ccc1OC (stereo partly drawn) [Compound A1, N-(6-(7-(4-(2-(2,6-Dioxopiperidin-3-yl)-6-fluoro-1-oxoisoindolin-4-yl)piperidin-1-yl)heptyl)-2-((S)-1-(3-ethoxy-4-methoxyphenyl)-2-(methylsulfonyl)ethyl)-1,3-dioxoisoindolin-4-yl)acetamide] | ≥ 60% | –
≤ 70% | CCOc1cc([C@@H](CS(C)(=O)=O)N2C(=O)c3cccc(NC(=O)COCCOCCOCCOCCNc4cccc5c4C(=O)N(C4CCC(=O)NC4=O)C5=O)c3C2=O)ccc1OC (stereo partly drawn) [Compound A4, 14-((2-(2,6-Dioxopiperidin-3-yl)-1,3-dioxoisoindolin-4-yl)amino)-N-(2-((S)-1-(3-ethoxy-4-methoxyphenyl)-2-(methylsulfonyl)ethyl)-1,3-dioxoisoindolin-4-yl)-3,6,9,12-tetraoxatetradecan-1-amide] | ≥ 60% | –
≤ 70% | CCOc1cc([C@@H](CS(C)(=O)=O)N2C(=O)c3cccc(NC(=O)CCCCCCCCCCCNc4cccc5c4C(=O)N(C4CCC(=O)NC4=O)C5=O)c3C2=O)ccc1OC (stereo partly drawn) [Compound A6, 12-((2-(2,6-Dioxopiperidin-3-yl)-1,3-dioxoisoindolin-4-yl)amino)-N-(2-((S)-1-(3-ethoxy-4-methoxyphenyl)-2-(methylsulfonyl)ethyl)-1,3-dioxoisoindolin-4-yl)dodecanamide] | – | –
≤ 70% | CCOc1cc([C@@H](CS(C)(=O)=O)N2C(=O)c3cc(CCCCCCCC4CCN(c5cccc6c5C(=O)N(C5CCC(=O)NC5=O)C6=O)CC4)cc(NC(C)=O)c3C2=O)ccc1OC (stereo partly drawn) [Compound A8, N-(6-(7-(1-(2-(2,6-Dioxopiperidin-3-yl)-1,3-dioxoisoindolin-4-yl)piperidin-4-yl)-heptyl)-2-((S)-1-(3-ethoxy-4-methoxyphenyl)-2-(methylsulfonyl)ethyl)-1,3-dioxoisoindolin-4-yl)acetamide] | ≥ 60% | ≥ 60%
≤ 70% | CCOc1cc([C@@H](CS(C)(=O)=O)N2C(=O)c3cccc(NC(=O)CCOCCOCCNc4cccc5c4C(=O)N(C4CCC(=O)NC4=O)C5=O)c3C2=O)ccc1OC (stereo partly drawn) [Compound A9, 3-(2-(2-((2-(2,6-Dioxopiperidin-3-yl)-1,3-dioxoisoindolin-4-yl)amino)-ethoxy)ethoxy)-N-(2-((S)-1-(3-ethoxy-4-methoxyphenyl)-2-(methylsulfonyl)ethyl)-1,3-dioxoisoindolin-4-yl)propanamide] | ≥ 60% | ≥ 60%
≤ 70% | CCOc1cc([C@@H](CS(C)(=O)=O)N2C(=O)c3cccc(NC(=O)CCOCCOCCOCCNc4cccc5c4C(=O)N(C4CCC(=O)NC4=O)C5=O)c3C2=O)ccc1OC (stereo partly drawn) [Compound A10, 3-(2-(2-(2-((2-(2,6-Dioxopiperidin-3-yl)-1,3-dioxoisoindolin-4-yl)amino)ethoxy)-ethoxy)ethoxy)-N-(2-((S)-1-(3-ethoxy-4-methoxyphenyl)-2-(methylsulfonyl)ethyl)-1,3-dioxoisoindolin-4-yl)propanamide] | < 20% | < 20%
≤ 70% | CCOc1cc([C@@H](CS(C)(=O)=O)N2C(=O)c3cccc(NC(=O)CCCCCCCCNCc4ccc(OCc5scc6c5CN(C5CCC(=O)NC5=O)C6=O)cc4)c3C2=O)ccc1OC (stereo partly drawn) [Compound A12, 9-((4-((5-(2,6-Dioxopiperidin-3-yl)-4-oxo-5,6-dihydro-4H-thieno[3,4-c]pyrrol-1-yl)methoxy)benzyl)amino)-N-(2-((S)-1-(3-ethoxy-4-methoxyphenyl)-2-(methylsulfonyl)ethyl)-1,3-dioxoisoindolin-4-yl)nonanamide] | – | –
≤ 70% | CCOc1cc([C@@H](CS(C)(=O)=O)N2C(=O)c3cccc(NC(=O)CCCCCCCCN4CCC(c5cc(F)cc6c5CN(C5CCC(=O)NC5=O)C6=O)CC4)c3C2=O)ccc1OC (stereo partly drawn) [Compound A13, 9-(4-(2-(2,6-Dioxopiperidin-3-yl)-6-fluoro-1-oxoisoindolin-4-yl)piperidin-1-yl)-N-(2-((S)-1-(3-ethoxy-4-methoxyphenyl)-2-(methylsulfonyl)ethyl)-1,3-dioxoisoindolin-4-yl)nonanamide] | ≥ 60% | –
≤ 70% | CCOc1cc([C@@H](CS(C)(=O)=O)N2C(=O)c3cc(CCCCCCCCCCCCN4CCC(c5cc(F)cc6c5CN(C5CCC(=O)NC5=O)C6=O)CC4)cc(NC(C)=O)c3C2=O)ccc1OC (stereo partly drawn) [Compound A14, N-(6-(12-(4-(2-(2,6-Dioxopiperidin-3-yl)-6-fluoro-1-oxoisoindolin-4-yl)piperidin-1-yl)dodecyl)-2-((S)-1-(3-ethoxy-4-methoxyphenyl)-2-(methylsulfonyl)ethyl)-1,3-dioxoisoindolin-4-yl)acetamide] | – | –
≤ 70% | CCOc1cc([C@@H](CS(C)(=O)=O)N2C(=O)c3cccc(NC(=O)CCCCCCCCC4CCN(c5cccc6c5C(=O)N(C5CCC(=O)NC5=O)C6=O)CC4)c3C2=O)ccc1OC (stereo partly drawn) [Compound A15, 9-{1-[2-(2,6-Dioxopiperidin-3-yl)-1,3-dioxo-2,3-dihydro-1H-isoindol-4-yl]piperidin-4-yl}-N-{2-[(1S)-1-(3-ethoxy-4-methoxyphenyl)-2-methanesulfonylethyl]-1,3-dioxo-2,3-dihydro-1H-isoindol-4-yl}nonanamide] | 40 to 60% | ≥ 60%
≤ 70% | CCOc1cc([C@@H](CS(C)(=O)=O)N2C(=O)c3cccc(NC(=O)CCCCCCCCC(=O)N[C@H](C(=O)N4C[C@H](O)C[C@H]4C(=O)NCc4ccc(-c5scnc5C)cc4)C(C)(C)C)c3C2=O)ccc1OC [Compound A60, N^1-(2-((S)-1-(3-Ethoxy-4-methoxyphenyl)-2-(methylsulfonyl)ethyl)-1,3-dioxoisoindolin-4-yl)-N^10—((S)-1-((2S,4R)-4-hydroxy-2-((4-(4-methylthiazol-5-yl)benzyl)-carbamoyl)pyrrolidin-1-yl)-3,3-dimethyl-1-oxobutan-2-yl)decanediamide] | – | –
≤ 70% | O=C1CCC(N2Cc3c(C#CC4CCN(C(=O)CCCCOc5cc(C(=O)Nc6c(Cl)cncc6Cl)ccc5OC(F)F)CC4)cccc3C2=O)C(=O)N1 (stereo not shown) [Compound B2, N-(3,5-Dichloropyridin-4-yl)-4-(difluoromethoxy)-3-((5-(4-((2-(2,6-dioxopiperidin-3-yl)-1-oxoisoindolin-4-yl)ethynyl)piperidin-1-yl)-5-oxopentyl)oxy)benzamide] | – | –
≤ 70% | O=C1CCC(N2Cc3cc(C4CCN(CCCCCCCOc5cc(C(=O)Nc6c(Cl)cncc6Cl)ccc5OC(F)F)CC4)c(F)cc3C2=O)C(=O)N1 (stereo not shown) [Compound B3, N-(3,5-Dichloropyridin-4-yl)-4-(difluoromethoxy)-3-((7-(4-(2-(2,6-dioxopiperidin-3-yl)-6-fluoro-1-oxoisoindolin-5-yl)piperidin-1-yl)heptyl)oxy)benzamide] | – | –
≤ 70% | O=C1CCC(N2C(=O)c3cccc(NCCCCCCCOc4cc(C(=O)Nc5c(Cl)cncc5Cl)ccc4OC(F)F)c3C2=O)C(=O)N1 (stereo not shown) [Compound B6, N-(3,5-Dichloropyridin-4-yl)-4-(difluoromethoxy)-3-((7-((2-(2,6-dioxopiperidin-3-yl)-1,3-dioxoisoindolin-4-yl)amino)heptyl)oxy)benzamide] | – | –
≤ 70% | O=C1CCC(N2Cc3c(cc(F)cc3C3CCN(CCCCCCCCCCCCOc4cc(C(=O)Nc5c(Cl)cncc5Cl)ccc4OC(F)F)CC3)C2=O)C(=O)N1 (stereo not shown) [Compound B7, N-(3,5-Dichloropyridin-4-yl)-4-(difluoromethoxy)-3-((12-(4-(2-(2,6-dioxo-piperidin-3-yl)-6-fluoro-1-oxoisoindolin-4-yl)piperidin-1-yl)dodecyl)oxy)benzamide] | – | –
≤ 70% | Cc1ncsc1-c1ccc(CNC(=O)[C@@H]2C[C@@H](O)CN2C(=O)[C@@H](NC(=O)CCCCCCCCOc2cc(C(=O)Nc3c(Cl)cncc3Cl)ccc2OC(F)F)C(C)(C)C)cc1 [Compound B20, (2S,4R)-1-((S)-2-(9-(5-((3,5-Dichloropyridin-4-yl)carbamoyl)-2-(difluoromethoxy)phenoxy)nonanamido)-3,3-dimethylbutanoyl)-4-hydroxy-N-(4-(4-methylthiazol-5-yl)benzyl)pyrrolidine-2-carboxamide] | – | –
≤ 70% | Cc1ncsc1-c1ccc(CNC(=O)[C@@H]2C[C@@H](O)CN2C(=O)[C@@H](NC(=O)CCCCCCCCCCOc2cc(C(=O)Nc3c(Cl)cncc3Cl)ccc2OC(F)F)C(C)(C)C)cc1 [Compound B21, (2S,4R)-1-((S)-2-(11-(5-((3,5-dichloropyridin-4-yl)carbamoyl)-2-(difluoromethoxy)phenoxy)undecanamido)-3,3-dimethylbutanoyl)-4-hydroxy-N-(4-(4-methyl-thiazol-5-yl)benzyl)pyrrolidine-2-carboxamide] | – | –
